Values joined by “and” are separate entries in the source; they are usually repeats but may differ in a detail not shown here. Identical values can stand only once. “Also recorded” adds a separate entry of the source. Like-named read-outs stand apart in the source and are kept apart here. Where a SMILES comes first, the peptide text is derived from it.
Experiments:
[1] = target: T1, hCdc20^WD40 (Homo sapiens, UniProt Q12834); assay: SMOR assay, human Cdc20 WD40; format: binding; conditions: for Dwell Time: Clb5: Not 3x shutter speed
T1 construct: human Cdc20 (aa 162–484; pNH188); made in house; host or cells: Sf9 insect cells (baculovirus)
Method: Activators were cloned into the pFastBac HT A vector, with an N-terminal 2xStrep-Tag II. For some experiments, we constructed vectors for expression of the WD40 domains of yeast Cdh1 (aa 241–550; pNH144), human Cdh1 (aa 165–484; pNH164), or human Cdc20 (aa 162–484; pNH188). For SMOR, a C-terminal GFP tag was added. Bacmid plasmids are listed in Supplementary Table 3. Plasmids were transformed into DH10Bac cells, and purified Bacmid was used to transfect Sf9 cells to generate P1 baculovirus, which was used to generate P2 virus. SF9 cells were infected with the P2 virus for 48 h. Flash-frozen pellets were lysed by sonication or high-pressure homogenization in lysis buffer B (50 mM Tris-HCl pH 8, 150 mM KCl, 0.5 mM EDTA, 1 mM DTT, 10% Glycerol, EDTA-free protease inhibitor tablet, 1 µg ml^−1 pepstatin A). After the lysate was applied to the StrepTrap column, the column was washed with wash buffer B (lysis buffer B lacking protease inhibitors) and eluted in the same buffer containing 2.5 mM desthiobiotin.
(§1) For all SMOR experiments, 24 × 50 mm high precision glass coverslips (Bioscience Tools) and drilled microscope slides were passivated with a combination of PEG and PEG-biotin (coverslips) or PEG only (slides) following a previously published protocol for SiMPull[31]. Reaction chambers (~20 µl) were created using double-sided tape and epoxy. Protein was immobilized on the surface with 0.2 mg ml^−1 NeutrAvidin in buffer C (20 mM HEPES pH 7.5, 150 mM KCl, 10% glycerol, 0.05% Tween-20, 1 mM DTT). Excess NeutrAvidin was washed away and incubated with either biotin-conjugated mouse monoclonal anti-Strep-Tag II antibody (LSBio, Cat. No. LS-C203632-100) or biotin-conjugated rabbit polyclonal anti-GFP antibody (Rockland, Cat. No. 600-406-215) diluted in buffer C + BSA (0.1 mg ml^−1; Molecular Biology Grade Bovine Serum Albumin). Activator WD40 and activated APC/C (typically 50 µl containing about 65 ng APC/C, of which only a small fraction is immobilized on the glass) were immobilized using anti-Strep-Tag II, while APC/C alone was immobilized with anti-GFP. SMOR results were similar when performed in the buffer (wash buffer B) used in polarization anisotropy.
(§2) To capture dynamic protein–protein interactions, dye-labeled substrate diluted in buffer C + BSA was added to the chamber containing immobilized proteins. Interactions were imaged by TIRF microscopy as described below. For optimal signal-to-noise ratio, peptide concentration was no greater than 1 nM. Protein substrates included Hsl1 aa 667–872 and a C-terminal HaloTag followed by a TAP tag, and were produced by translation in rabbit reticulocyte lysates using TnT Quick Coupled Transcription/Translation System (Promega) (see Supplementary Table 5 for plasmids). Protein was purified with magnetic IgG beads and labeled on the bead with JF549 or JF646 dye so that unbound dye could be washed away. Purified dye-labeled protein was then cleaved from the beads using TEV protease. Before adding substrate to the reaction chamber, oxygen scavenging reagents were added (10 nM protocatechuate-3,4-dioxygenase, 2.5 mM protocatechuic acid, and 1 mM Trolox)[41]. A detailed description of the SMOR analysis pipeline is found in Supplementary Note 1.
Microscopy was performed with a Nikon Eclipse TE2000-E with Perfect Focus with a 100 × 1.49na oil, Apo TIRF DIC N2, 0.13-0.2, WD0.12 objective. Movies were recorded using the Andor iXon DU-897E-CSO. For visualizing GFP-tagged protein, a 491 nm laser was used with an ET525/50 (Chroma) filter for emission. For visualizing JF549-labeled substrate, a 561 nm laser was used with an ET595/50 (Chroma) filter for emission. For visualizing all Cy5-labeled peptides and JF646-labeled substrates, a 640 nm laser was used with an ET685/70 filter (Chroma) for emission. […]

[2] = target: T2, APC/C^Cdh1 (Saccharomyces cerevisiae, UniProt P53068+P53197); format: binding; conditions: for mean dwell time: representative of two independent experiments, ± SE, ligand ≤1 nM, buffer C + BSA
T2 construct: APC/C was purified from yeast cells; made in house; host or cells: APC/C from S. cerevisiae W303 strain NHY13 (Cdc16-TAP, Apc1-GFP, cdh1 deleted); Cdh1 from Sf9 (baculovirus)
Method: Yeast strains were derivatives of W303 and are listed in Supplementary Table 2. For APC/C purification, we used a strain carrying Cdc16-TAP and lacking Cdh1 (DOM1126); in most experiments, the strain also carried Apc1-GFP (NHY13). Yeast were grown in YPD media to OD600 = 0.8, collected and flash-frozen. Cells were lysed by bead beating in lysis buffer A (50 mM HEPES pH 7.5, 150 mM KCl, 10% glycerol, 0.2% Triton X-100, 63 µM B-glycerophosphate, 48 µM sodium fluoride, 1 µg ml^−1 pepstatin A, 1 µg ml^−1 leupeptin, 1 µg ml^−1 aprotinin, 1 mM PMSF, 1 mM DTT, 0.5 mM EDTA) and APC/C was purified using magnetic IgG beads. The beads were washed using wash buffer A (20 mM HEPES pH 7.5, 150 mM KCl, 10% Glycerol, 0.05% Triton X-100). After incubation with purified Cdh1 or Cdc20, the APC/C was cleaved off the beads with TEV protease in wash buffer A with 0.05% Tween-20 (for single-molecule studies) or 0.05% Triton X-100 (for ensemble assays such as ubiquitylation) and used immediately.
as §1, §2
Microscopy was performed with a Nikon Eclipse TE2000-E with Perfect Focus with a 100 × 1.49na oil, Apo TIRF DIC N2, 0.13-0.2, WD0.12 objective. Movies were recorded using the Andor iXon DU-897E-CSO. For visualizing GFP-tagged protein, a 491 nm laser was used with an ET525/50 (Chroma) filter for emission. For visualizing JF549-labeled substrate, a 561 nm laser was used with an ET595/50 (Chroma) filter for emission. For visualizing all Cy5-labeled peptides and JF646-labeled substrates, a 640 nm laser was used with an ET685/70 filter (Chroma) for emission. Initially, for each substrate tested, we acquired movies at multiple intervals to deduce the optimal interval to decrease bleaching. µManager version 2.0 was used to control the microscope and record time-lapse movies.

[3] = Supplementary Table 1, replicate 1 (movie listed first)
[4] = Supplementary Table 1, replicate 2 (movie listed second)
[5] = Supplementary Table 1, replicate 1
[6] = Supplementary Table 1, replicate 2

T1 sequence (Q12834 162-484): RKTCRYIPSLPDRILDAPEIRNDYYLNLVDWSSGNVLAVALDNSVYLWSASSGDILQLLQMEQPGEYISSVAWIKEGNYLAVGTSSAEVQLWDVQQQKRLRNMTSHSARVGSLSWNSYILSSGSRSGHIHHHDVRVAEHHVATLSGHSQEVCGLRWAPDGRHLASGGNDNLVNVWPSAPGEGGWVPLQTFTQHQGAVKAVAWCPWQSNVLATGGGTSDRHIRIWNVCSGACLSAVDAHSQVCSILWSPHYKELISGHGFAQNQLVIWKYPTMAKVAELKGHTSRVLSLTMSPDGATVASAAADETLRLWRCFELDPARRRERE

Row | Molecule | Dwell Time [1, 3] [s] | Dwell Time [1, 4] [s] | mean dwell time ([1]; less than three times the frame rate, therefore less reliable (footnote a)) [s^a] | Dwell Time [2, 3] [s] | Dwell Time [2, 4] [s] | mean dwell time [2] | binding (in words) [1] | Dwell Time (in words) [1, 5] | binding (in words) [2] | Dwell Time (in words) [2, 5] | Dwell Time (in words) [1, 6] | Dwell Time (in words) [2, 6]
1 | CC(C)C[C@H](NC(=O)[C@H](C)NC(=O)[C@H](CCCNC(=N)N)NC(=O)[C@H](CCCNC(=N)N)NC(=O)[C@@H]1CCCN1C(=O)[C@H](CCCCN)NC(=O)[C@H](CO)NC(=O)[C@H](CC(=O)O)NC(=O)[C@@H](N)CCC(N)=O)C(=O)N[C@H](C(=O)N[C@@H](CC(=O)O)C(=O)N[C@H](C(=O)N1CCC[C@H]1C(=O)N[C@H](C(=O)N[C@@H](CC(N)=O)C(=O)N[C@@H](CC(N)=O)C(=O)N[C@@H](CC(N)=O)C(=O)N1CCC[C@H]1C(=O)N[C@@H](CC(C)C)C(=O)N[C@@H](CO)C(=O)N[C@@H](CCC(N)=O)C(=O)N[C@@H](CCCCN)C(=O)O)C(C)C)C(C)C)[C@@H](C)O [Clb5 D box] (H-QDSKPRRALTDVPVNNNPLSQK-OH; N-terminus and C-terminus assumed) | 0.054 ± 0.001 | 0.058 ± 0.001 | 0.054 | 0.146 ± 0.007 | 0.159 ± 0.004 | 0.159 ± 0.004 s and 0.159 s |  |  |  |  |  | 
2 | CC[C@H](C)[C@H](NC(=O)[C@H](CC(=O)O)NC(=O)[C@H](CO)NC(=O)[C@H](C)NC(=O)[C@H](C)NC(=O)[C@H](C)NC(=O)[C@H](C)NC(=O)[C@H](CCCCN)NC(=O)[C@@H]1CCCN1C(=O)[C@H](CCCCN)NC(=O)[C@H](CCC(N)=O)NC(=O)[C@@H](N)CCC(=O)O)C(=O)N[C@H](C(=O)N[C@@H](C)C(=O)N[C@@H](CO)C(=O)N[C@@H](Cc1ccccc1)C(=O)N[C@@H](CC(N)=O)C(=O)N[C@@H](CCCCN)C(=O)N[C@@H](CCSC)C(=O)N[C@@H](CC(N)=O)C(=O)N[C@@H](CCCCN)C(=O)O)[C@@H](C)O [Hsl1 D box mutant] (H-EQKPKAAAASDITASFNKMNK-OH; N-terminus and C-terminus assumed) |  |  |  |  |  |  | No binding | no binding | No binding | no binding |  | 
3 | CC[C@H](C)[C@H](NC(=O)[C@H](Cc1ccccc1)NC(=O)[C@H](CO)NC(=O)[C@H](CCCCN)NC(=O)[C@H](CO)NC(=O)[C@H](CCCNC(=N)N)NC(=O)[C@H](CC(N)=O)NC(=O)[C@H](CC(N)=O)NC(=O)[C@H](CC(=O)O)NC(=O)[C@H](CCCCN)NC(=O)[C@H](C)NC(=O)[C@H](C)NC(=O)[C@H](CC(C)C)NC(=O)[C@@H]1CCCN1C(=O)[C@H](CC(C)C)NC(=O)[C@H](CCCNC(=N)N)NC(=O)CNC(=O)[C@H](CCC(N)=O)NC(=O)[C@H](CCC(N)=O)NC(=O)[C@H](CCC(N)=O)NC(=O)[C@H](C)N)C(=O)N[C@@H](CCCCN)C(=O)O [ySecurin D box] (H-AQQQGRLPLAAKDNNRSKSFIK-OH; N-terminus and C-terminus assumed) |  |  |  | 0.132 ± 0.002 | 0.121 ± 0.006 | 0.132 ± 0.002 s and 0.132 s |  | single frame |  |  | single frame | 
4 | LIYVDKENGEPGTR-K(Cy5) [hSecurin KEN, Cy5-labeled KEN box peptide of human securin/Pttg1] |  |  |  |  |  |  | did not bind human Cdc20^WD40; also recorded: No binding | no binding | No binding | no binding | no binding | no binding
5 | LPKATRKALGTVNRATEKSVK-K(Cy5) [AurKB D box, Cy5-labeled D box peptide of Aurora B kinase] |  |  |  |  |  |  | single-frame interactions only | single frame | No binding | no binding | single frame | no binding
6 | SKAAQFMLYEETAEERNI-K(Cy5) [Acm1 ABBA, Cy5-labeled Cdh1-specific ABBA motif from pseudosubstrate yeast protein Acm1] |  |  |  |  |  |  | No binding | no binding | No binding | no binding | no binding | no binding

— article PMC8764033, “Single-molecule analysis of specificity and multivalency in binding of short linear substrate motifs to the APC/C” (Nature Communications, 2022)
